Results on twelve molecules are retold here after ChEMBL document CHEMBL4619739, “Synthesis and biological evaluation of heterocyclic bis-aryl amides as novel Src homology 2 domain containing protein tyrosine phosphatase-2 (SHP2) inhibitors” (Bioorg Med Chem Lett, 2020).

Activity calls are given as the source filed them. The rule behind the calls is not given here. A value given as a limit tells only on which side of the number the result lay.

For experiment [1], the target named is T1, Tyrosine-protein phosphatase non-receptor type 11 (Homo sapiens) (UniProt Q06124).
T1 sequence (whole entry): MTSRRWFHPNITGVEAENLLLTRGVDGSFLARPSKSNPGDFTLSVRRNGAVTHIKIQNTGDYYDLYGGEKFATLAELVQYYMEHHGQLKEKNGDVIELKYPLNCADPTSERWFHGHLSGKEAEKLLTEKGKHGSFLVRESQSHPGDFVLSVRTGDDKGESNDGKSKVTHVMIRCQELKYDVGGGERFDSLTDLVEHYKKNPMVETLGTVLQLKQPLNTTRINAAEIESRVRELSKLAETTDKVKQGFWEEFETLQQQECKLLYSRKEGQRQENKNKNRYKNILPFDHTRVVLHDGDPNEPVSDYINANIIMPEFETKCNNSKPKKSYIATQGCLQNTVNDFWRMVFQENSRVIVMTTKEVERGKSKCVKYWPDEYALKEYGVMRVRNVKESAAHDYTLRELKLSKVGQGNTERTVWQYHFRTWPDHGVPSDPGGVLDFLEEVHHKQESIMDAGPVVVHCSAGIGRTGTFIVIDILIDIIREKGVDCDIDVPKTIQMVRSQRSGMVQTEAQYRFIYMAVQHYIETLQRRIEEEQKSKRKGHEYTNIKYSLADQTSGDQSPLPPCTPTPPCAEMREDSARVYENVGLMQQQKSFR
The experiment in a line: Inhibition of SHP2 (unknown origin) at 20 ug/ml using 3-o-methylfluorescein phosphate as substrate by fluorescence assay relative to control.

In experiment [2] the target is T2, Tyrosine-protein phosphatase non-receptor type 1 (Homo sapiens) (UniProt P18031).
T2 sequence (whole entry): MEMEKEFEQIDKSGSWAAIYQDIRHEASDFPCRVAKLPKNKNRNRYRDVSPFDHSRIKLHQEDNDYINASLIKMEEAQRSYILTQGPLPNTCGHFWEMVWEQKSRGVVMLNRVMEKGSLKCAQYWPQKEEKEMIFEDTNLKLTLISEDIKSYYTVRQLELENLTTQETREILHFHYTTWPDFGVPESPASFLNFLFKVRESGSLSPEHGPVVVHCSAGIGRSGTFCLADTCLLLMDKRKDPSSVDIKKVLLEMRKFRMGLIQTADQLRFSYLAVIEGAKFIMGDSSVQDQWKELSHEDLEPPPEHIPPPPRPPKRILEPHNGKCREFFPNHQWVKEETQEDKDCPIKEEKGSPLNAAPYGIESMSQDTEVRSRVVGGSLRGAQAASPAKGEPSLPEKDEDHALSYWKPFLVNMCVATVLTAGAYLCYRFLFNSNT
As to the kind of experiment: Inhibition of GST-tagged PTP1B (unknown origin) at 20 ug/ml using pNPP as substrate measured for 3 mins by colorimetric assay relative to control.

Experiment [3] has as its target T3, Tyrosine-protein phosphatase non-receptor type 1 (Homo sapiens, UniProt P18031).
T3 sequence (P18031 whole entry): T2 sequence (whole entry)
As to the kind of experiment: Inhibition of GST-tagged PTP1B (unknown origin) using pNPP as substrate measured for 3 mins by colorimetric assay.

Experiment [4] addresses T4, Tyrosine-protein phosphatase non-receptor type 11 (Homo sapiens, UniProt Q06124).
T4 sequence (Q06124 whole entry): T1 sequence (whole entry)
The experiment in a line: Inhibition of SHP2 (unknown origin) using 3-o-methylfluorescein phosphate as substrate by fluorescence assay.

The species entered for experiment [5] is Homo sapiens. As to the kind of experiment: Selectivity index, ratio of IC50 for SHP1 (unknown origin) to IC50 for SHP2 (unknown origin).
The target in experiment [6] is T5, Tyrosine-protein phosphatase non-receptor type 2 (Homo sapiens, UniProt P17706).
T5 sequence (P17706 whole entry): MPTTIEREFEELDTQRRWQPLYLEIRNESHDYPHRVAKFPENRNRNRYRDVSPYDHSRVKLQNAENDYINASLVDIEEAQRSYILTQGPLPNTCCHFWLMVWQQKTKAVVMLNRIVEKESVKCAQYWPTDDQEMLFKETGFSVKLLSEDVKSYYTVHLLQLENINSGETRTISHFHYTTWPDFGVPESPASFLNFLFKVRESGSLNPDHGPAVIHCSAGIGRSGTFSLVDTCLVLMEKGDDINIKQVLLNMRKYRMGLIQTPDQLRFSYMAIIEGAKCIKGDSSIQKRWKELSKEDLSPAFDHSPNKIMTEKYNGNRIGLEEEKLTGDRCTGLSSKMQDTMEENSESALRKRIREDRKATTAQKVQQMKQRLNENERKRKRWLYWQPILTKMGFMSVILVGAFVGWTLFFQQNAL
As to the kind of experiment: Inhibition of GST-tagged TCPTP (unknown origin) using pNPP as substrate measured for 3 mins by colorimetric assay.

Experiment [7] concerns the target Tyrosine-protein phosphatase non-receptor type 6 (Homo sapiens) (UniProt P29350). The experiment in a line: Inhibition of SHP1 (unknown origin) at 20 ug/ml using 3-o-methylfluorescein phosphate as substrate by fluorescence assay relative to control.
Experiment [8] is filed under the species Homo sapiens. As to the kind of experiment: Selectivity index, ratio of IC50 for SHP2 (unknown origin) to IC50 for GST-tagged TCPTP (unknown origin).
The target in experiment [9] is T1, Tyrosine-protein phosphatase non-receptor type 11 (Homo sapiens). As to the kind of experiment: Competitive inhibition of SHP2 (unknown origin) assessed as increase in Km with constant Vmax using DiFMUP as substrate by Lineweaver-Burk plot analysis.
Experiment [10] has the same target. The experiment in a line: Fast binding inhibition of SHP2 (unknown origin) using DiFMUP as substrate by enzyme kinetics assay.
For experiment [11] the target is unchanged. As to the kind of experiment: Reversible inhibition of SHP2 (unknown origin) using DiFMUP as substrate by enzyme kinetics based dialysis assay.

Sequence of Tyrosine-protein phosphatase non-receptor type 6 (Homo sapiens) (P29350 whole entry): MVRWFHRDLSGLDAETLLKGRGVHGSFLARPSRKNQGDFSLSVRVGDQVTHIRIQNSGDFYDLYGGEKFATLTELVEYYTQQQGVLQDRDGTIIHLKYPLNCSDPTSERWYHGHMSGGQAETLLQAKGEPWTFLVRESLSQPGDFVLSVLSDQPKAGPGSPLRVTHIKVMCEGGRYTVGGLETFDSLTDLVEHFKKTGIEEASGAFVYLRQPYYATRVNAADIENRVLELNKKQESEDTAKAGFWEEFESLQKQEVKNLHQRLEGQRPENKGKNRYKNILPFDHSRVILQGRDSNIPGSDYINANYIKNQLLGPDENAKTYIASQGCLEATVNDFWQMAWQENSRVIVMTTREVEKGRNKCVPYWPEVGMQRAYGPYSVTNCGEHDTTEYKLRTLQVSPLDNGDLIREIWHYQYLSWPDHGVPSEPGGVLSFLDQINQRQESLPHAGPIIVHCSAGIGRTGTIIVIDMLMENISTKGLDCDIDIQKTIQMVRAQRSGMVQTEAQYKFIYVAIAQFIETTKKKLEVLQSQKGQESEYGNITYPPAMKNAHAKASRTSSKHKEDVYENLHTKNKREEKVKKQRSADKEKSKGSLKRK

For the molecule `O=C(NC1CCCCC1)c1ccc(-c2ccc(C(=O)NC3CCCCC3)o2)cc1`, the inhibition in experiment [1] and in experiment [2] was below 50% each time.
`O=C(Nc1ccc(Cl)cc1)c1ccc(-c2ccc(C(=O)Nc3ccc(Cl)cc3)o2)cc1` had an IC50 in experiment [3] of 15.7 µM. Further, the inhibition in [1] is below 50%.
In the case of `O=C(Nc1ccccc1)c1ccc(-c2ccc(C(=O)Nc3ccccc3)s2)cc1`, the IC50 in experiment [3] worked out at 3.52 µM; in experiment [4] it was 5.75 µM.
On to `O=C(Nc1ccccc1)c1ccc(-c2ccc(C(=O)Nc3ccccc3)[nH]2)cc1`, for which 23.4 µM corresponded to half-maximal inhibition in experiment [3] (IC50). For the same molecule, in experiment [1], the inhibition is below 50%.
For `O=C(NC1CCCCC1)c1ccc(-c2ccc(C(=O)NC3CCCCC3)s2)cc1`, the IC50 in [3] came out at 4.88 µM; in [4], 10.7 µM.
Consider `O=C(Nc1ccc(F)cc1)c1ccc(-c2ccc(C(=O)Nc3ccc(F)cc3)[nH]2)cc1`, for which the IC50 in experiment [3] was determined as 28.3 µM; in experiment [4], 20.3 µM.
In the case of SODIUM ORTHOVANAD, the Ratio IC50 in the experiment filed under Homo sapiens [5] turned out to be 1.92.
`O=C(Nc1ccc(F)cc1)c1ccc(-c2ncc(C(=O)Nc3ccc(F)cc3)s2)cc1` registered an IC50 in [4] of 4.63 µM. Besides, in [2], the inhibition was below 50%.
In experiment [3], `O=C(Nc1ccc(F)cc1)c1ccc(-c2ccc(C(=O)Nc3ccc(F)cc3)o2)cc1` yielded a half-inhibitory concentration (IC50) of 10.5 µM. In experiment [1], this molecule displayed an inhibition below 50%.
`O=C(Nc1ccccc1)c1ccc(-c2ncc(C(=O)Nc3ccccc3)s2)cc1` displayed an IC50 in experiment [3] of 7.94 µM. For the same molecule, in experiment [1], the inhibition is below 50%.
On to `O=C(Nc1ccc(F)cc1)c1ccc(-c2ccc(C(=O)Nc3ccc(F)cc3)s2)cc1`, for which the values for the Ratio IC50 in the experiment filed under Homo sapiens [5] and in the experiment listed under Homo sapiens [8] were above 43.8 and 4, respectively. The figures for the IC50 in [6] and in experiment [4] were 9.16 µM and 2.63 µM, respectively. The inhibition in [7] and in [2] was below 50% throughout. In addition, the inhibition result in [9], in experiment [10] and in experiment [11] was “Active” each time.
Turning to `O=C(Nc1ccccc1)c1ccc(-c2ccc(C(=O)Nc3ccccc3)o2)cc1`, the figures for the IC50 in [3] and in experiment [4] were 3.48 µM and 4.63 µM, respectively.
